Two compounds from US10064843B2, “Bis-amide derivative and use thereof” (University-Industry Cooperation Group of Kyung Hee …, priority 2013, dated 2018) can be followed below.

One experiment addresses T1, CypA (Homo sapiens, UniProt P62937).
T1 construct: GST (N, cleaved yes); made in house; host or cells: E. coli (pGEX-KG)
The experiment in a line: PPIase activity of CypA, coupled chymotrypsin analysis. The experiment is classed as biochemical. Conditions: FIG. 7a; read-out: IC50 PPIase activity of CypA. As to the method: Example 5: Analysis of Peptidyl-Prolyl Cis-Trans Isomerase Activity
The PPIase activity of CypA was determined according to a known method using the coupled chymotrypsin analysis.
The cis-trans isomerization was measured by absorbance at 390 nm in a spectrophotometer. Additionally, the remaining percentage of enzyme activity was measured at different concentrations of the inhibitor to calculate the 50% inhibition concentration (IC50) to the PPIase activity. Data was optimized via graphs by exporting using Graph Pad Prism 5.

For the next experiment, the system named is HCV replicon cells. In words: Luciferase activity in HCV replicon cells. The following applies: Hepatitis C virus; 2 μM, 72 hours; FIG. 6; read-out: inhibition of luciferase activity of HCV. The experiment is classed as cell-based. As to the method:
Additionally, a series of compounds (WJCPA-1 to WJCPA-135) having the bis-amide structure as a parent structure in common, based on the inhibitory effect of WJCPA-126 against the PPIase activity, were synthesized and their activities were confirmed. Specifically, Huh7-rep cells were treated with each of the compounds at a concentration of 2 μM for 3 days, and the expression level of NS5A was confirmed by performing an immunoblot analysis according to a known method (FIG. 5). The 32 kinds of compounds confirmed to have excellent inhibitory effect especially against the NS5A expression from the immunoblot experiment were measured regarding their inhibitory effect against luciferase activity and the results are illustrated in FIG. 6. In the same manner as in western blot, the HCV replicon cells were treated with each of the compounds at a concentration of 2 μM and incubated for 72 hours, and the total cell lysate of the cultured cells were used for the analyses of western blot and the activity of luciferase.
On the technique in general: A replicon is a self-replicating genome or part of one, used to study replication in cells.

T1 sequence (P62937 whole entry): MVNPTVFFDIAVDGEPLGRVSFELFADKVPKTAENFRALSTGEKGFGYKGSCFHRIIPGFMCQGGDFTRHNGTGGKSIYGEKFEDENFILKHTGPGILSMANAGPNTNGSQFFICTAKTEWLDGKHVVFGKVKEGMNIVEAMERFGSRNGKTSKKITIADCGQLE

As usually defined, the IC50 is the concentration that gives 50% inhibition. By inhibition is commonly meant the relative decrease from the control value, in per cent. On to `Cc1ccc(C)c(C(=O)N(c2ccc(C(C)C)cc2)C(C(=O)NC2CCCCC2)c2ccc(Cl)cc2)c1` (stereo not drawn) [WJCPA30, N-[(4-chloro-phenyl)-cyclohexylcarbamoyl-methyl]-N-(4-isopropyl-phenyl)-2,5-dimethyl-benzamide], for which, at CypA, the IC50 stood at 0.0106 µM. Further, the inhibition at 2 µM in the experiment with HCV replicon cells is at most 80%.
In the case of `COc1ccc(CCC(=O)N(c2ccc(Br)cc2)C(C(=O)NC2CCCCC2)c2ccc([N+](=O)[O-])cc2)cc1` (stereo not drawn) [WJCPA133, N-(4-bromo-phenyl)-N-[cyclohexylcarbamoyl-(4-nitro-phenyl)-methyl]-3-(4-methoxy-phenyl)-propionamide], at CypA, the concentration for half-maximal inhibition (IC50) is 0.0112 µM.
